What was measured:
[1] = 30 μg/rat
[2] = in vivo; settings: rat, plasma, 0.03 mg; for AUC(0-inf): Area under the blood level curve (AUC ^.infin.0); for AUC(0-inf) / concentration at 1 min / concentration at 0.05 h / concentration at 10 min / concentration at 20 min / concentration at 0.5 h / concentration at 0.75 h / concentration at 1 h / concentration at […] / concentration at 2 h / concentration at 3 h / concentration at 5 min: 30 μg/rat; for concentration at 1 min / concentration at 0.05 h / concentration at 10 min / concentration at 20 min / concentration at 0.5 h / concentration at 0.75 h / concentration at 1 h / concentration at […] / concentration at 2 h / concentration at 3 h / concentration at 5 min: Plasma Level; for concentration at 0.05 h: 3 min; for concentration at 0.5 h: 30 min; for concentration at 0.75 h: 45 min; for concentration at 1 h: 60 min; for concentration at […]: 90 min; for concentration at 2 h: 120 min; for concentration at 3 h: 180 min
[3] = nasal, individual rats I, II, III
[4] = po, Mean, oral (intraduodenal), mean of 3 rats

## C=CCN1CC[C@]23c4c5ccc(O)c4O[C@H]2C(=O)CC[C@@]3(O)[C@H]1C5 [naloxone]
[1]; nasal vs intravenous
  absorption via the nasal route compared with the intravenous route: as effective as via the intravenous route
  areas under the curve following intravenous and nasal administration, compared: not significantly different
  bioavailability when administered nasally compared with intravenously: equivalent to the bioavailability of the drug when administered intravenously
  half-life of elimination after nasal administration compared with intravenous: comparable to its half-life following intravenous nasal administration
[1]; nasal vs oral
  bioavailability when administered nasally compared with the oral route: vastly superior to its bioavailability by the oral route
[1]; nasal
  absorption from the nasal mucosa: very rapidly absorbed from the nasal mucosa
  absorption from the nasal mucosa into the systemic circulation; intestinal or first pass metabolism: rapidly absorbed from the nasal mucosa into the systemic circulation without extensive intestinal or first pass metabolism
[2]
  Tmax: ~5 min
  bioavailability: 1.5%
  half-life: 52.1 min
[2]; Mean, nasal, mean of 3 rats
  AUC(0-inf): 25.3 ng·h/mL
  concentration at 1 min: 23.3 ng/mL
  concentration at 0.05 h: 38.3 ng/mL
  concentration at 10 min: 36 ng/mL
  concentration at 20 min: 19.5 ng/mL
  concentration at 0.5 h: 12 ng/mL
  concentration at 0.75 h: 7.96 ng/mL
  concentration at 1 h: 6.41 ng/mL
  concentration at […]: 3.58 ng/mL
  concentration at 2 h: 2.59 ng/mL
  concentration at 3 h: 1.42 ng/mL
[2]; [3]
  AUC(0-inf): 31.7 ng·h/mL
  concentration at 0.05 h: 41.2 ng/mL
  concentration at 5 min: 54.5 ng/mL
  concentration at 10 min: 45.3 ng/mL
  concentration at 20 min: 22.7 ng/mL
  concentration at 0.5 h: 13.5 ng/mL
  concentration at 0.75 h: 9.36 ng/mL
  concentration at 1 h: 8.26 ng/mL
  concentration at […]: 4.79 ng/mL
  concentration at 2 h: 3.65 ng/mL
  concentration at 3 h: 1.95 ng/mL
[2]; iv
  half-life: 59.2 min
[2]; iv, individual rats I, II, III
  AUC(0-inf): 21.2 ng·h/mL
  concentration at 1 min: 102 ng/mL
  concentration at 0.05 h: 52.3 ng/mL
  concentration at 5 min: 31.4 ng/mL
  concentration at 10 min: 15.6 ng/mL
  concentration at 20 min: 10.3 ng/mL
  concentration at 0.5 h: 7.28 ng/mL
  concentration at 0.75 h: 5.47 ng/mL
  concentration at 1 h: 4.87 ng/mL
  concentration at […]: 3.01 ng/mL
  concentration at 2 h: 2.15 ng/mL
  concentration at 3 h: 1.25 ng/mL
[2]; iv, Mean, mean of 3 rats
  AUC(0-inf): 25 ng·h/mL
  concentration at 1 min: 111 ng/mL
  concentration at 0.05 h: 58 ng/mL
  concentration at 5 min: 37.5 ng/mL
  concentration at 10 min: 19.6 ng/mL
  concentration at 20 min: 11.6 ng/mL
  concentration at 0.5 h: 8.34 ng/mL
  concentration at 0.75 h: 6.74 ng/mL
  concentration at 1 h: 5.41 ng/mL
  concentration at […]: 3.96 ng/mL
  concentration at 2 h: 2.86 ng/mL
  concentration at 3 h: 1.47 ng/mL
[2]; [4]
  AUC(0-inf): 0.367 ng·h/mL
  concentration at 5 min: 0.37 ng/mL
  concentration at 10 min: 0.34 ng/mL
  concentration at 0.75 h: 0.11 ng/mL
  concentration at 1 h: 0.09 ng/mL
  concentration at 2 h: 0.06 ng/mL
